Results taken from ChEMBL document CHEMBL1201862, “PubChem BioAssay data set” (2004).
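Compound exposure: 48 hours, 5 concentrations, 96-well plates. Abbreviation: GI50, concentration required for 50% inhibition of growth.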 Active and inactive are the calls of the source. Cut-off read from the data, not from the text of the source: active = GI50 up to about 1.1 µM and inactive = higher.

Tests used:
Assay in all cases: NCI anticancer screen, dose series, 48 h
[1] = test system: RXF 393
[2] = test system: SW-620
[3] = test system: LOX IMVI
[4] = test system: SF-295
[5] = test system: TK-10
[6] = test system: SK-MEL-28
[7] = test system: OVCAR-5
[8] = test system: SNB-19
[9] = test system: DMS-114
[10] = test system: HCT-15
[11] = test system: UACC-62
[12] = test system: COLO 205
[13] = test system: HOP-62
[14] = test system: U-251
[15] = test system: NCI-H23
[16] = test system: RXF 631
[17] = test system: HL-60
[18] = test system: LXFL 529
[19] = test system: HCC 2998
[20] = test system: NCI-H522
[21] = test system: EKVX
[22] = test system: IGROV-1
[23] = test system: CCRF-CEM
[24] = test system: SK-MEL-2
[25] = test system: UACC-257
[26] = test system: K562
[27] = test system: SF-539
[28] = test system: SR
[29] = test system: SNB-78
[30] = test system: HT-29
[31] = test system: SK-OV-3
[32] = test system: HOP-92
[33] = test system: M14
[34] = test system: HCT-116
[35] = test system: OVCAR-3
[36] = test system: CAKI-1
[37] = test system: ACHN
[38] = test system: OVCAR-8
[39] = test system: M19-MEL
[40] = test system: SN12C
[41] = test system: DLD-1
[42] = test system: OVCAR-4
[43] = test system: NCI-H226
[44] = test system: SK-MEL-5
[45] = test system: UO-31
[46] = test system: XF498
[47] = test system: KM12
[48] = test system: Malme-3M
[49] = test system: A549
[50] = test system: 786-0
[51] = test system: NCI-H460
[52] = test system: RPMI-8226
[53] = test system: HOP-18
[54] = test system: MOLT-4
[55] = test system: SF-268
[56] = test system: DMS-273
[57] = test system: A498
[58] = test system: SNB-75
[59] = test system: KM-20L2

Measured: GI50

CC1=C(C(=O)Nc2ccccc2C)C(c2ccc(Cl)cc2)C(C(=O)Nc2ccccc2C)=C(C)N1
inactive: [1] > 100 µM | [2] > 100 µM | [3] > 100 µM | [4] > 100 µM | [5] > 100 µM | [6] > 100 µM | [7] > 100 µM | [8] > 100 µM | [9] > 100 µM | [11] > 100 µM | [12] > 100 µM | [13] > 100 µM | [14] > 100 µM | [15] > 100 µM | [16] > 100 µM | [17] > 100 µM | [18] > 100 µM | [19] > 100 µM | [20] > 100 µM | [21] > 100 µM | [22] > 100 µM | [23] > 100 µM | [24] > 100 µM | [25] > 100 µM | [26] > 100 µM | [27] > 100 µM | [28] > 100 µM | [29] > 100 µM | [30] > 100 µM | [31] > 100 µM | [32] > 100 µM | [33] > 100 µM | [34] > 100 µM | [35] > 100 µM | [36] > 100 µM | [37] > 100 µM | [38] > 100 µM | [39] > 100 µM | [40] > 100 µM | [41] > 100 µM | [42] > 100 µM | [43] > 100 µM | [44] > 100 µM | [45] > 100 µM | [46] 81.3 µM | [47] > 100 µM | [48] > 100 µM | [49] > 100 µM | [50] > 100 µM | [51] > 100 µM | [52] > 100 µM | [53] > 100 µM | [54] > 100 µM | [55] > 100 µM
> 100 µM: [10]

CCOC(=O)C1=C(Nc2cccc3ccccc23)OC/C1=N\NC(=O)c1ccccc1O
inactive: [1] 3.96 µM | [2] 18.8 µM | [3] 14.3 µM | [4] 22.8 µM | [5] 21.1 µM | [56] 9.59 µM | [6] 22.3 µM | [7] 20.6 µM | [8] 22.1 µM | [9] 11.4 µM | [11] 6.53 µM | [12] 15.5 µM | [13] 13.5 µM | [14] 23.7 µM | [15] 4.09 µM | [16] 21.2 µM | [17] 6.93 µM | [18] 20.3 µM | [19] 54.1 µM | [20] 7.64 µM | [21] 21.3 µM | [22] 4.26 µM | [23] 4.86 µM | [57] 19.5 µM | [24] 29.8 µM | [25] 22.9 µM | [26] 10.1 µM | [27] 10.6 µM | [28] 7.55 µM | [30] 29.7 µM | [31] 26 µM | [32] 11.1 µM | [33] 21.9 µM | [34] 19.1 µM | [35] 10.6 µM | [36] 7.28 µM | [37] 8.63 µM | [38] 17 µM | [39] 19.1 µM | [40] 23.4 µM | [41] 17.6 µM | [42] 9.68 µM | [43] 22.3 µM | [44] 12.9 µM | [45] 4.88 µM | [46] 8.04 µM | [47] 25.3 µM | [48] 28.9 µM | [49] 16.4 µM | [50] 21 µM | [58] 3.39 µM | [51] 14.8 µM | [59] 29 µM | [52] 16.7 µM | [53] 11.1 µM | [54] 12.6 µM | [55] 13.4 µM
14.7 µM: [10]

O=c1c(Cc2ccccc2)c(O)cc2n1CCC2
> 100 µM: [10]
inactive: [1] > 100 µM | [2] > 100 µM | [3] > 100 µM | [4] > 100 µM | [5] > 100 µM | [6] > 100 µM | [7] > 100 µM | [8] > 100 µM | [9] > 100 µM | [11] > 100 µM | [12] > 100 µM | [13] > 100 µM | [14] > 100 µM | [15] > 100 µM | [16] > 100 µM | [18] > 100 µM | [19] > 100 µM | [20] > 100 µM | [21] > 100 µM | [22] > 100 µM | [23] 41.5 µM | [57] > 100 µM | [25] > 100 µM | [26] > 100 µM | [27] > 100 µM | [28] > 100 µM | [29] > 100 µM | [30] > 100 µM | [31] > 100 µM | [32] > 100 µM | [33] > 100 µM | [34] > 100 µM | [35] > 100 µM | [36] > 100 µM | [37] > 100 µM | [38] > 100 µM | [39] > 100 µM | [40] > 100 µM | [41] > 100 µM | [42] > 100 µM | [43] > 100 µM | [44] > 100 µM | [45] > 100 µM | [46] > 100 µM | [47] > 100 µM | [48] > 100 µM | [49] > 100 µM | [50] > 100 µM | [58] > 100 µM | [51] > 100 µM | [59] > 100 µM | [52] > 100 µM | [53] > 100 µM | [54] > 100 µM | [55] > 100 µM
